# Measurements reported in US7001997B2, “Proteins, their production and use” (Takeda Chemical Industries, Ltd., priority 1996, dated 2006).
# How the values were obtained:
# [1] = molecular target: T1, human liver-derived metalloprotease (Homo sapiens, UniProt Q99542); assay: Inhibitor screening system with fluorogenic substrate DNP-Pro-Cha-Abu-Cys(Me)-His-Ala-Lys(N-Me-Abz)-NH2; type: biochemical; design: the objective metalloprotease of about 46 kDa was eluted with buffer E (QIAexpress System); 6xHis (vector-encoded N-terminal tag of pQE30); made in house; host or cells: Escherichia coli JM109/pNHMB; details: 10 μM substrate, 37° C., 16 hours, excitation 365 nm, emission 460 nm; read-out: 50% inhibitory concentration of metalloprotease activity
# T1 sequence (Q99542 98-508): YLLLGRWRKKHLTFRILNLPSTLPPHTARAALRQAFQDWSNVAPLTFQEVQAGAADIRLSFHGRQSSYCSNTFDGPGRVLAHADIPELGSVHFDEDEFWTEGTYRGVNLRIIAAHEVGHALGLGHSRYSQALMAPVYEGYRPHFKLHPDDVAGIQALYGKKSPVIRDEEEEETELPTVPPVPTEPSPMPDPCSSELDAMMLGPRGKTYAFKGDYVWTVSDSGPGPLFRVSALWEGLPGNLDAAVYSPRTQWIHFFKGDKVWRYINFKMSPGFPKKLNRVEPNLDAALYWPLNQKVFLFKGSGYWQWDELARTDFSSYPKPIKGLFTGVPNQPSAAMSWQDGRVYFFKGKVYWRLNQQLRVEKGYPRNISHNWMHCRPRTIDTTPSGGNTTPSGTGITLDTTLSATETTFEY
# Experimental: A 96-well plate (Fluoro B Plate, Dainippon Pharmaceutical) was filled in with 30 μL of buffer (0.25 M Tris-HCl (pH 8.0), 5 mM CaCl2, 100 mM NaCl, 10 μM ZnCl2) and 20 μL of the recombinant human liver-derived metalloprotease (2.4 mg/ml) obtained in Example 5. […] When actinonin (Peptide Institute), a metalloprotease inhibitor, was added at a varying concentration to this reaction mixture, it inhibited metalloprotease activity with a 50% inhibitory concentration of about 10 μM. It was, therefore, clear that this assay system can be used for the screening of inhibitors of the human liver-derived metalloprotease.
# [2] = molecular target: T1, human liver-derived metalloprotease; assay: PER assay of casein hydrolyzing activity in culture supernatant of COS-7 cells transfected with pTB1921; type: biochemical; design: expressed in transfected cells; host or cells: COS-7; details: supernatant activated with 1 mM aminophenyl-mercuric acetate, 37° C., 30 minutes
# Experimental: Add aminophenyl mercuric acetate (final concentration 1 mM) to the protein of the present invention and react at 37° C. for 30 minutes. Electrophorese the reaction mixture on SDS-polyacrylamide gels (non-reducing) in accordance with PER (F. T. Lundy et al., Electrophoresis, 16, 43, 1995). Then, saturate the polyacrylamide gels with the substrate and react in the reaction medium at 37° C. for 16 hours. After the reaction, stain the gels with CBB to detect a proteolytic activity.
# The pTB1921 obtained in Example 1, which had been inserted into the expression plasmied pCMV·SPORT (GIBCO/BRL), was used for expression in animal cells. The COS-7 cell line (purchased from the Institute for Fermentation, Osaka) was cultured in serum-containing DMEM and subcultured on the day before introduction of the gene. When the culture became 50% confluent, the COS-7 cells were washed with serum-free DMEM, and 2.5 ml of serum-free medium was added. […]
# To the cell culture supernatant obtained in Example 2 was added aminophenyl-mercuric acetate (final concentration 1 mM) and the reaction was carried out at 37° C. for 30 minutes. The activity was then determined by the PER assay (F. T. Lundy et al., Electrophoresis, 16, 43, 1995). As a result, casein hydrolyzing activity which was not found in the mock culture supernatant was detected in the culture supernatant of COS-7 cells transfected with pTB1921.
Structure (SMILES),IC50 [1] [µM],inhibition of casein hydrolyzing activity [2]
CCCCC[C@H](CC(=O)NO)C(=O)N[C@H](C(=O)N1CCC[C@H]1CO)C(C)C [actinonin],~10,
c1cnc2c(c1)ccc1cccnc12 [o-phenanthroline],,inhibited
